Columns and labels:
Settings in all cases: 72 h
[1] = test system: MV4-11
In short: (§1)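 The IC50 was derived from log-logistic dose–response fitting. Each of fifteen myeloid leukaemia cell lines, seeded in RPMI 1640 within its linear growth range, was exposed in 384-well plates to five tenfold doses (1 to 10,000 nM) in duplicate for 72 h at 37 °C and 5% CO2. Luminescent ATP viability readings were normalised to vehicle and to a positive control at 10 µM before four-parameter curve fitting.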

[2] = test system: HL-60
In short: as §1

[3] = test system: BV-173
In short: as §1

[4] = test system: SHI-1
In short: as §1

[5] = test system: K-562
In short: as §1

[6] = test system: THP-1
In short: as §1

[7] = test system: KCL-22
In short: as §1

[8] = test system: KU-812
In short: as §1

[9] = test system: MOLM-13
In short: as §1

[10] = test system: ML-2
In short: as §1

[11] = test system: Mono-Mac-6
In short: as §1

[12] = test system: NOMO-1
In short: as §1

[13] = test system: HEL
In short: as §1

[14] = test system: LAMA-84
In short: as §1

[15] = test system: KG-1
In short: as §1

[16] = test system: HL-60; experiment: cell viability (% survival relative to DMSO control); higher = less cytotoxic
In short: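 Area under the curve, where listed, was derived from four-parameter log-logistic fits with drc and PharmacoGx. These fits used CellTiter-Glo viability from HL-60 cells in RPMI 1640 with 10% FBS, normalised to DMSO wells and wells holding 10 μM proteasome inhibitor. The full library was rescreened on 384-well plates in duplicate at five tenfold concentrations, 1–10,000 nM, with DMSO or 100 nM of one of three metabolic inhibitors, for 72 h at 37 °C, 5% CO2.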

[17] = test system: MV4-11; experiment: cell viability (% survival relative to DMSO control, bortezomib = 0%); higher = less cytotoxic
In short: (§2)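 Percent survival figures are means of duplicate wells. They were obtained by CellTiter-Glo luminescence after 10 AML and 5 CML cell lines spent 72 h at 37 °C with 5% CO2 in 384-well plates with compounds at 1, 10, 100, 1000 or 10000 nM. Vehicle was set to 100% and a 10 µM positive control to 0%.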

[18] = test system: HL-60; experiment: as above
In short: as §2

[19] = test system: SHI-1; experiment: as above
In short: as §2

[20] = test system: K-562; experiment: as above
In short: as §2

[21] = test system: THP-1; experiment: as above
In short: as §2

[22] = test system: KCL-22; experiment: as above
In short: as §2

[23] = test system: KU-812; experiment: as above
In short: as §2

[24] = test system: MOLM-13; experiment: as above
In short: as §2

[25] = test system: ML-2; experiment: as above
In short: as §2

[26] = test system: NOMO-1; experiment: as above
In short: as §2

[27] = test system: HEL; experiment: as above
In short: as §2

[28] = test system: KG-1; experiment: as above
In short: as §2

Cc1nc(-c2ccccc2)sc1C(=O)Nc1ccc(S(N)(=O)=O)cc1
Settings	IC50 (cell viability) [µM]
[1]	> 10
[2]	> 10
[3]	> 10
[4]	> 10
[5]	> 10
[6]	> 10
[7]	> 10
[8]	> 10
[9]	> 10
[10]	> 10
[11]	> 10
[12]	> 10
[13]	> 10
[14]	> 10
[15]	> 10

cell viability [%], [16]
Settings	0.001 µM	0.01 µM	0.1 µM	1 µM	10 µM
co-treatment: AZD3965 100 nM	101	109	96	94.8	99.97
co-treatment: DMSO vehicle	103	109	100.3	97.5	98.6
co-treatment: GSK2194069 100 nM	99.3	104	85.9	91.2	96.25
co-treatment: pictilisib 100 nM	101	97.6	92	97.9	99.5

cell viability [%]
Settings	1 nM	10 nM	100 nM	1000 nM	10000 nM
[17]	106	112	105	105	93.8
[18]	109	85	117	103	97.2
[19]	109	106	104	103	111
[20]	103	109	105	114	109
[21]	107	103	97	94.7	97.7
[22]	98.7	99.1	105	79.8	102
[23]	108	102	96.4	91	104
[24]	102	112	127	106	99.7
[25]	111	104	99.8	107	100
[26]	113	98.2	96.6	101	99.6
[27]	110	112	106	89.3	105
[28]	118	104	98.5	93.3	102

From the supplement of paper PMC8671470
